From patent US9352010B2, “Treatment of HIV-1 infection and AIDS” (The J. David Gladstone Institutes, priority 2011, dated 2016)
“Also recorded” adds a separate entry of the source.

Key:
[1] = system: IL-1β; assay: Maturation and secretion of IL-1β in abortively infected tonsillar CD4 T-cells (Western blot); format: cell-based, human; conditions: AZT 5 μM, AMD3100 250 nM, efavirenz 100 nM
Description: For assessing the processing and secretion of IL-1β in abortively infected CD4 T-cells, CD4 T-cells were isolated from HLACs as described above, and were spinoculated with or without NL4-3 with the indicated drugs as describes above in vi (Spinoculation) and in FIG. 7B. For intracellular protein analysis, cells were lysed 72 hours after spinoculation in RIPA buffer (150 mM NaCl, 1% Nonidet P-40 (vol/vol), 0.5% […] (vol/vol), 0.1% SDS (vol/vol), 50 mM Tris-HCl (pH 8), 1 mM DTT), and EDTA-free Protease Inhibitor (Roche Applied Science, Cat. #04 693 132 001). For analysis of secreted IL-1β, supernatants (200 μl/1 million cells) from the rest of the CD4 T-cells were collected five days after spinoculation and analyzed using Western blot. For Western blots we used the Bio-Rad Criterion 15% pre-cast Tris-HCl gels. Primary antibodies used were 1/1000 of the mouse monoclonal anti-human IL-1β (R&D Systems, Cat. # MAB201) and 1/10000 of the mouse monoclonal anti-β-Actin (Sigma, Cat. # A5316).

[2] = system: HLAC CD4 T-cells; assay: HLAC cells overlaid on virus-producing 293T-cells, CD4 T-cell depletion; format: cell-based, human; conditions: 24 hours co-culture
Description: HLACs were infected with viruses derived from the indicated HIV proviral clones in the presence of the indicated concentrations of AZT or in the absence of drugs. Six days after infection the amount of p24^gag in the medium was determined by FLAQ assay. The amount of p24^gag in the medium after infection wash (day 0) was defined as 0%. […] Viral incorporation of endogenous A3G was measured by immunoblot analysis of purified NL4-3 and Δvif NL4-3 virions harvested from 1 ml of supernatant from infected HLACs. Doses reflect 1:10 dilutions. […] Resting or activated CFSE-labeled cells were co-cultured with cells infected with WT or Δvif NL4-3 in the presence or absence of the following drugs, AZT (5 μM), AMD3100 (250 nM), the NNRTIs Efavirenz (100 nM), and Nevirapine (1 μM), or the integration inhibitors Raltegravir (30 μM) and 118-D-24 (60 μM). Data are representative of four independent experiments performed with cells from four different donors. (E) A method to assess indirect killing in HLAC with non-infectious HIV-1 clones. Fresh human tonsil is processed into HLAC and cells are cultured in suspension. At the same time 293T-cells are transfected with 1 μg HIV-1 DNA in a 24-well plate. After 12 hours, 293T-cells are washed and overlayed with 3×10^6 HLAC cells in RPMI in the presence of the indicated drugs. Virus-producing 293T-cells directly interact with target overlaying HLAC cells. After 24 hours, the HLAC suspensions are collected from wells and analyzed by flow cytometry. […] HLAC were cultured with the indicated drugs 3 hours before co-culture with 293T-cells. Percentages are normalized to the number of viable CD4 T-cells in HLAC overlaying non-transfected 293T-cells in the presence of AZT, as depicted by (*). Error bars represent standard error of the mean of three experiments performed using cells from three different HLAC donors.

[3] = system: CFSE-labeled spleen CD4 T-cells; assay: Indirect killing assay with CFSE-labeled human spleen cells; format: cell-based; conditions: for loss of CFSE-labeled spleen CD4 T-cells: HIV-infected spleen HLAC effectors; for loss of resting CFSE-labeled spleen CD4 T-cells: HIV-infected tonsil effector cells
Description: (B and C) Fresh human spleen from a single donor were processed into HLAC and assessed in indirect cell killing assay as described in FIG. 2A. Effector spleen HLAC were stimulated with PHA and IL-2 48 hours before mixing, but not during co-culturing with CFSE-labeled cells. Non-activated resting CFSE-labeled spleen cells were co-cultured with NL4-3-infected or uninfected effector cells in the presence or absence of the following drugs, AZT (5 μM), AMD3100 (250 nM), Efavirenz (100 nM), or Raltegravir (30 μM), as indicated. […] Percentages were normalized to the number of viable CFSE-positive spleen CD4 T-cells co-cultured with uninfected effectors in the presence of AZT, as depicted by (*). Error bars represent standard error of the mean for three experiments performed with three different spleen and tonsil donors.
Human tonsil or splenic tissues from routine tonsillectomies were obtained from the National Disease Research Interchange and the Cooperative Human Tissue Network and processed as previously described (Jekle et al., 2003, J Virol 77:5846-5854). In brief, tonsils or spleen were minced, passed through a 40-μm cell strainer, and cultured in 96-well U-bottomed polystyrene plates (2×10^6 cells/well) in medium (200 μl/well) consisting of RPMI 1640 supplemented with 15% heat-inactivated fetal bovine serum, 100 μg/ml gentamicin, 200 μg/ml ampicillin, 1 mM sodium pyruvate, 1% nonessential amino acids (Mediatech), 2 mM L-glutamine, and 1% fungizone (Invitrogen). All HIV-1 infections were carried out with 20-50 ng of HIV-1 p24^gag. Cells were incubated with the virus for 12-16 h, washed extensively, and supplemented with fresh medium. After day 5, infections were monitored by measuring p24gag levels in the culture medium using a FLAQ assay (Hayden et al., 2003, AIDS 17:629-631). Infected and uninfected cultures were manipulated as described for individual experiments. In “indirect killing” assays, unless otherwise stated, drugs were used at the following concentrations: 5 μM AZT; 250 nM AMD3100; 10 μg/ml T20; 100 nM Efavirenz; 1 μM Nevirapine; 30 μM Raltegravir; 60 μM 118-D-24; 5 μM Amprenavir; 5 μM Saquinavir; 5 μM Indinavir. CFSE-labeled cells were activated with PHA (5 μg/ml) and IL-2 (20 ng/ml) 2 days before mixing with effector cells.
Uninfected cells (5×10^6/ml) were labeled with 1 μM CFSE (Molecular Probes C1157), treated with 5 μM AZT for 24 h, and co-cultured with effector cells. CFSE readily diffuses into cells, where intracellular esterases cleave the acetate groups, converting it to a fluorescent, membrane-impermeable dye. […] To quantify indirect killing, mixed (CFSE-labeled+effector) cultures were washed in FACS buffer (PBS supplemented with 2 mM EDTA and 2% fetal bovine serum), stained with PE-conjugated anti-CD4, PerCP-conjugated anti-CD19, and APC-conjugated anti-CD8 (all from BD Pharmingen) and fixed in 1% paraformaldehyde. To determine the absolute numbers of the viable CFSE-labeled cells, a standard number of fluorescent beads (Flow-Count Fluorospheres, Beckman Coulter) was added to each cell-suspension sample before data acquisition. Data were collected on a FACS Calibur (BD Biosciences) and analyzed with Flowjo software (Treestar). The level of indirect killing was defined by sequential gating beginning with forward scatter versus side scatter to select live lymphocytes, subgating on the CFSE-positive population, and calculating the numbers of CD4 or CD8 T or B cells, divided by the number of fluorescent beads acquired.

Compound	maturation and release of bioactive 17 kDa IL-1β after NL4-3 infection [1]	loss of HLAC CD4 T-cells over NL4-3-transfected 293T-cells [2]	loss of CFSE-labeled spleen CD4 T-cells [3]	loss of resting CFSE-labeled spleen CD4 T-cells [3]
Cc1cn([C@H]2C[C@H](N=[N+]=[N-])[C@@H](CO)O2)c(=O)[nH]c1=O [AZT]	similarly resulted in maturation and release of the bioactive 17 kDa IL-1β; also recorded: also resulted in release of bioactive 17-kDa IL-1β	occurred both in the presence and absence of AZT	robust in the absence of drugs or in the presence of AZT	massively depleted
c1cc(CN2CCCNCCNCCCNCC2)ccc1CN1CCCNCCNCCCNCC1 [AMD3100]	completely prevented; also recorded: blocked	completely blocked	prevented the loss of CD4 T-cells as efficiently as AMD3100	
O=C1Nc2ccc(Cl)cc2[C@@](C#CC2CC2)(C(F)(F)F)O1 [efavirenz]	completely prevented; also recorded: blocked	completely blocked	prevented the loss of CD4 T-cells as efficiently as AMD3100	prevented this loss of CD4 T-cells
